Measurements from a melting point compilation (Tetko et al.; mined from patent text by program, amines drawn as free bases though some values may be those of a salt).

Structure (SMILES) | melting point
Clc1cccc(/C=C/[C@H]2CCCN2c2ncnc3[nH]cnc23)c1 | 194 to 196 °C
CCCCCCCCCc1cc(=O)c2c(O)cc(O)cc2o1 | 101 °C
O=c1cc(-c2ccoc2)c2ccc(COc3cc(F)cc(-c4ccccc4)c3)cc2o1 | 105 to 107 °C
Cc1ccc(-c2cc(F)c3c(c2)CC(CN)O3)cc1 (centres undefined) | > 250 °C
O=C(O)CCC(=O)NCC(=O)N1c2ccccc2N(Cc2ccccc2)C(=O)[C@H]2CCC[C@H]21 (relative stereo) | 148 to 151 °C
COC(=O)COc1ccc(CCN2CCN(c3ccncc3)CC2)cc1 | 104 to 105 °C
CCN1C(=O)CCC(C)(C)c2cc([N+](=O)[O-])ccc21 | 67 °C
Cc1ccc(N2N=CC(=NNc3cccc(-c4cccc(C(=O)O)c4)c3O)C2=O)cc1C | 226 to 228 °C
CS(=O)c1nccc(N)n1 (centres undefined) | 158 to 159 °C
O=c1[nH]c2cc(Cl)cc(Cl)c2c(O)c1Sc1ccccc1Br | 285 to 288 °C
COc1ccc(CNc2nc(-c3ccccc3)c(-c3ccc(=O)n(C(C)C)n3)nc2C(=O)O)cc1 | 216 to 217 °C
CCCc1nc2c(N)nc3cc(OCCn4cccc4)ccc3c2s1 | 158 to 160 °C
CCOC(=O)c1cccc(C2COc3cc(O)c(O)cc3C2)c1 (centres undefined) | 131 to 133 °C
CCCCS(=O)(=O)NC(Cc1ccc(N2CCN(CCC3CCN(C(=O)OC(C)(C)C)CC3)C2=O)cc1)C(=O)OC (centres undefined) | 124 to 126 °C
CCC(CC)C(NC(=O)c1ccc(Cl)cc1)NC(=C[N+](=O)[O-])Nc1cccnc1 (centres undefined) | 192 to 193 °C
O=C(NCCCO)c1ccc(O)cc1 | 118 to 120 °C
CCOC(=O)c1cc(C#N)ccn1 | 170 to 172 °C
OC1CSC(Oc2cncc(-c3ccccc3)c2)C(O)C1O (centres undefined) | 169 °C
CN(C)C(=O)NNC(=O)c1ccccc1 | 199 to 201 °C
Cc1cc(F)ccc1-c1ccc(S(=O)(=O)N2c3ccccc3CC2C(=O)NCc2ccccc2[N+](=O)[O-])cc1 (centres undefined) | 64 to 66 °C
CCn1c2ccccc2c2cc(NC(=S)NNC(C)=O)ccc21 | 197 to 199 °C
COc1cc(C(C)=O)ccc1OCCN1CCN(c2nsc3ccccc23)CC1 | 98 to 100 °C
CC(=O)OCCOc1cnc(-c2ncc([N+](=O)[O-])n2C)nc1 | 148 to 150 °C

Structure (SMILES) | melting point
CC(C)C1(c2ccccc2O)C(=O)N(C)c2ccccc21 (centres undefined) | 172 to 174 °C
Nc1c(C(=O)c2ccoc2)[nH]c2cc(Cl)ccc12 | 113 to 114 °C
CN(c1ccccc1)c1nc(N(C)c2ccccc2)c2ccsc2n1 | 85 to 87 °C
COc1cc(OC)nc(NC(=O)NS(=O)(=O)c2ccccc2CO)n1 | 149 to 150 °C
COC(=O)c1c(-c2cccc(F)c2)c2cc(OCc3ccccc3)ccc2c(=O)n1CC(C)C | 127 to 128 °C
Cn1c(C2=CC(=O)c3ccccc3C2=O)ccc1C1=CC(=O)c2ccccc2C1=O | 320 to 321 °C
C=CCOc1ccccc1-c1nc2nc(SC)nnc2c(=O)[nH]1 | 238 to 239 °C
COc1ncncc1C1c2ccccc2OCOc2cc(F)ccc21 (centres undefined) | 144 to 148 °C
O=C(CNC(=O)c1ccc([N+](=O)[O-])c(I)c1)OCc1ccccc1 | 98 to 100 °C
CN(c1cccc2cc(-c3ncc(CCC(=O)N4CCOCC4)s3)[nH]c12)S(=O)(=O)c1cccs1 | 160 to 161 °C
CCC(=O)N1Cc2cn(C)nc2-c2cc(Cl)ccc21 | 137 to 138 °C
C=CCOc1ccc2c(C)cc(=O)oc2c1C(=O)C=Cc1cccnc1 | 124 to 126 °C
Cc1ccccc1C1C(C#N)=C(c2ccccc2)Nc2n[nH]cc21 (centres undefined) | 246 °C
CC(C)S(=O)(=O)N1CCN(Cc2ccc(COc3cccc4c3CN(C3CCC(=O)NC3=O)C4=O)cc2)CC1 (centres undefined) | 233 to 235 °C
CCC=C(NC(=O)C1CC1(C)C)C(=O)O (centres undefined) | 154 to 156 °C
Cn1nc(-c2ccc(F)cc2)c(-c2ccncc2)c1C=CCc1ccccc1 | 136 to 137 °C
COc1cc2c(cc1OC)C1=NCCN1C(/C=C(\O)c1cccnc1)=N2 | 275 °C
O=C(Nc1ccc(OCCN2CCOCC2)c2ccccc12)OCC(Cl)(Cl)Cl | 124 to 125 °C
CN1C(=O)C(c2cccc(OCc3ccccc3)c2)(c2cnn(CC(F)(F)F)c2)N=C1N (centres undefined) | 85 to 87 °C
O=C1c2c(Cl)cccc2OCN1CCO[N+](=O)[O-] | 98 to 100 °C
OCCNc1cc(Nc2ccc(N3CCOCC3)cc2)ncn1 | 204 to 207 °C
Cc1nc(-c2ccc(C(F)(F)F)cc2)sc1C(=O)N[C@H](C)[C@](O)(Cn1cncn1)c1ccc(F)cc1F | 79 to 82 °C
CN(C)C(=O)N1N=C2c3cc(F)ccc3OC[C@@H]2[C@@H]1c1ccccc1 (racemic) | 117 °C

Structure (SMILES) | melting point
CCCn1cc(Cc2ccc(C(=O)NS(=O)(=O)c3ccccc3C)cc2OC)c2cc(CCC(C)C(=O)N(C)C)ccc21 (centres undefined) | 90 to 93 °C
O=C(NC(=S)NCCSCc1c[nH]cn1)c1ccccc1 | 126 to 128 °C
CCOC(=O)c1cnc2ccn(-c3ccccc3)n2c1=O | 187 to 190 °C
O=C(O)C1CC=CCC1C(=O)N1CCc2cc(S(=O)(=O)N3CCN(c4cccc(Cl)c4)CC3)ccc21 (centres undefined) | 146 to 148 °C
NS(=O)(=O)c1ccc(NN=C2C(=O)Nc3ccc(S(N)(=O)=O)cc32)cc1 | > 250 °C
CCCCn1ccc(C=O)cc1=O | 36 to 40 °C
O=C(Nc1cc(F)cc2c(=O)cc(C(=O)O)oc12)c1ccc2c(c1)CC(CCCc1ccccc1)O2 (centres undefined) | 183 to 185 °C
COc1cccc2c1CCC(C#N)C2O (centres undefined) | 96 to 98 °C
C=CCCCOc1ccc(-c2ccc([N+](=O)[O-])cc2)cc1 | 74 to 76 °C
CC(C)(C)c1ccc2c(O)c(-c3ccccc3)sc2n1 | 181 to 183 °C
COc1cc2c(cc1OC)CCCC(C(=O)N1CCN(Cc3cc(OC)c(OC)c(OC)c3)C(C(=O)O)C1)=C2 (centres undefined) | 142 to 144 °C
O=c1[nH]c2scc(Br)c2[nH]c1=O | 295 to 296 °C
CNc1nc(-c2ccccc2)c(-c2nc3ccccc3c(=O)n2-c2ccccc2OC)s1 | 241 to 243 °C
O=C(C=Cc1ccccc1)Nc1ccc(S(=O)(=O)O)cc1 | 235 to 237 °C
COc1ccc(-c2nc(C)c(C(=O)Nc3nnn[nH]3)s2)cc1 | 275 to 278 °C
CC(C)(C)OC(=O)NC(Cc1ccccc1)C(=O)NC1N=C(c2ccccc2)c2ccccc2NC1=O (mixture of isomers) | 143 to 153 °C
COc1ccc2ccc(N3C(=O)c4ccccc4C3CC(=O)CCc3ccccc3)nc2n1 (centres undefined) | 180 °C
COCCCOc1ccc(CCC(=O)O)c(Oc2ncc(C(F)(F)F)cc2Cl)c1 | 99.1 to 99.2 °C
COc1cc(COc2nn(Cc3ccc(Oc4ccccc4)cc3)cc2C(=O)O)ccc1OCc1nc(-c2ccco2)oc1C | 153 to 154 °C
CC(C)(C)OC(=O)NCc1ccc(-n2c(-c3cccnc3N)nc3cc(Br)cnc32)cc1 | 129 to 131 °C
CCCCCS(=O)(=O)NC(=O)/C=C/c1ccc(OCCCOCCOC)cc1Oc1ncc(C(F)(F)F)cc1Cl | 103 to 105 °C
O=C1Nc2ncc(Br)cc2C1(Br)Br | 157 to 158 °C
CCOc1cc(C(F)(F)F)sc1C(=O)O | 144 °C
